Reference: US7094789B2, “5-substituted isoquinoline derivatives” (Asahi Kasei Pharma Corporation, priority 2002, dated 2006)

Legend:
neutrophils = experiment: Neutrophil migration inhibitory action (Test Example 5); type: cell-based; conditions: Homo sapiens, 0.5 h, FMLP 1 μM, Boyden Chamber, 37° C., 30 minutes, read-out: Neutrophil migration inhibition IC50
Procedure: Neutrophils were isolated from 50 to 100 ml of peripheral blood collected from healthy donors by the method described in Test Example 1 to obtain a cell suspension (8×10^6/ml). Subsequently, solutions of a test compound at various concentrations were introduced into wells of a 96-well plate in a volume of 125 μl per well, the cell suspension of an equivalent volume was added to it and the plate was preincubated at room temperature for 5 minutes. During the preincubation, FMLP (1 μM, Sigma) solution was added to the lower chamber to set Boyden Chamber, the preincubated cell suspension was added to the upper chamber in a volume of 200 μl per well, and the cells were allowed to migrate at 37° C. under 5% carbon dioxide for 30 minutes. The filter after the migration was collected, and the non-migrated cells adhered to the surface that faced the upper chamber were carefully wiped off. Then, the migrated cells on the back surface were stained with DifQuick dye solution (International Reagents), washed with water and dried, and then absorbance was measured at 595 nm. The inhibition ratio against migration (%) of a test compound was calculated by using the following equation: Migration inhibition ratio (%)=(1−Absorbance of the group with addition of test compound/Absorbance of the group without addition of test compound)×100 […]

[1] = system: phosphorylated myosin regulatory light chain; experiment: Action on amount of phosphorylated myosin regulatory light chain in the cells (Test Example 1); type: cell-based; conditions: Homo sapiens, Neutrophil, 5 min, human neutrophils; reaction with test compound at 25° C. for 5 minutes; read-out: Inhibition of myosin regulatory light chain phosphorylation (IC50: μM)
Procedure: A volume of 50 to 100 ml of peripheral blood collected from healthy volunteers was centrifuged by using Mono-Poly separator solution (Dainippon Pharmaceutical) to prepare a neutrophil containing fraction. The neutrophils were washed with PBS(−) and resuspended in Hanks' Balanced Salt Solution (HBSS+, Gibco) to prepare a cell suspension (8×10^6/ml). The cell suspension was diluted to 5×10^6/ml, introduced into Eppendorf tubes in a volume of 0.4 ml each, then 0.1 ml each of solutions of a test compound at various concentrations were added to the suspension and allowed to react at 25° C. for 5 minutes. […]
The gel after the electrophoresis was blotted on a nitrocellulose membrane (BioRad), blocked with 5% skim milk, and reacted successively with antibodies pLC1 (Sakurada K. et al, Am. J. Physiol., 274, C1563–C1572 (1998)), which specifically recognize the phosphorylated myosin regulatory light chain, and donkey anti-mouse IgG (Chemicon) conjugated with horseradish peroxidase (HRP-labeled). The band of the phosphorylated myosin regulatory light chain was detected on a film by using ECL Plus Kit (Amersham Pharmacia Biotech). This band was subjected to quantification using a densitometer. By using this value, the inhibitory ratio (%) for phosphorylation of the myosin regulatory light chain was calculated by using the following equation. […]

[2] = system: thoracic aorta constricted with phenylephrine; experiment: Vasoconstriction inhibitory action (Test Example 2); set-up: species or system Rats (Wistar); conditions: test compound 1 μM; aorta constricted with phenylephrine 1 μM
Description: Rats (Wistar, 11-week old) were bleeded to death and laparotomized to take out the thoracic aorta. That aorta was cut into a ring of a length of about 3 mm in a conventional manner (Asano, T., et al., J. Pharmacol. Exp. Ther., 241, pp. 1033–1040 (1987)) and hung in 10-ml organ bath filled with Krebs-Hensright nutrient solution bubbled with a mixed gas of 95% O2 and 5% CO2. One end of the blood vessel was connected to an isometric transducer (FD Pickup TB-912T, Nihon Kohden) and applied with 2.5 g of resting tension, and constriction and relaxation reactions of the aorta were recorded. The aorta was constricted with phenylephrine (1 μM, Sigma) and then added with a test compound (1 μM), and the vasoconstriction inhibitory action thereof was observed. The vasoconstriction inhibitory actions of the test compounds are shown in Table 6 mentioned below as the relaxation ratios, which are based on the vasoconstriction with phenylephrine immediately before the addition of the test compound taken as 100%.

## CC1CNCCN1S(=O)(=O)c1cccc2cnccc12 (stereo not drawn) [Example H-7, 1-(5-Isoquinolinesulfonyl)-2-methylpiperazine]
neutrophils
  IC50: > 40 µM
[1]
  IC50: 80 µM
[2]
  Vasoconstriction inhibitory action (relaxation ratio) (%): 22.0%
